Measured values reported in patent publication US11629136B1, “Substituted pyridine derivatives as SARM1 inhibitors” (Nura Bio, Inc., priority 2021, dated 2023).
Where a name gives a salt, the structure may show the parent alone.

Biological target: human SARM1(50-724) (Homo sapiens (Human), UniProt Q6SZW1)
Test: SARM1 NAD hydrolase biological assay (HPLC readout of NAD and NAM peak areas)
Assay type: biochemical
Details: not given
Protocol: The reaction was incubated at room temperature for 60 minutes and quenched with 20 μL of 0.4% formic acid. […] Total run time for each sample was 4 minutes. The run was isocratic with 1.5% methanol in 40 mM ammonium acetate pH 6.0. Samples were run at a flow rate of 0.8 ml/min at 55° C. Peak areas of NAD and NAM were determined using OpenLAB CDS (Chem Station edition) software. For dose-response, the compound was diluted serially 1:3 in DMSO and added to the reaction starting at a final compound concentration of 100 μM in 1% DMSO.

human SARM1(50-724), sequence (Q6SZW1 50-724): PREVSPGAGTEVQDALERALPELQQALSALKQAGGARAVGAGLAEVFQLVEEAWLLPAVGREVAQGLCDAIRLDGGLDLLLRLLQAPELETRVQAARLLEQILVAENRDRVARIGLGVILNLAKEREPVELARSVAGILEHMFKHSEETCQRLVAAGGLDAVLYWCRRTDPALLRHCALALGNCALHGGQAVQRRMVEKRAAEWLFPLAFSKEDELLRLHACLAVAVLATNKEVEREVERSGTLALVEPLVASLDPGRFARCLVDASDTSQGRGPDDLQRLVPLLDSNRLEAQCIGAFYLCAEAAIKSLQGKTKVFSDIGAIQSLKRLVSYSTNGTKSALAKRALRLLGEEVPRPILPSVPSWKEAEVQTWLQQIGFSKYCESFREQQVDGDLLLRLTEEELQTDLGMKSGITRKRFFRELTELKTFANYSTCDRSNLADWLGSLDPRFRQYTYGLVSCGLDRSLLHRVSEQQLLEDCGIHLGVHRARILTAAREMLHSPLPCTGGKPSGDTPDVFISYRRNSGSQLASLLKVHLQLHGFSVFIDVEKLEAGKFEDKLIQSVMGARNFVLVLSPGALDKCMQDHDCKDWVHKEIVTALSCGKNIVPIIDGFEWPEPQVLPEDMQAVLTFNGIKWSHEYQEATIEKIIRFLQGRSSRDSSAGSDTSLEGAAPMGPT

Row | SMILES | IC50 [µM]
1 | N#CCCc1nc(Cc2ccncc2)c[nH]1 [Example 4, 3-(4-(Pyridin-4-ylmethyl)-1H-imidazol-2-yl)propanenitrile] | 1 to 10

Same assay, conditions: 40 nM human SARM1(50-724), 0.3 mM NMN, 20 μM NAD, 60 minutes at room temperature; class symbols; read-out: Average IC50

Row | IC50 [µM] | SMILES
2 | < 1 | O[C@H](c1ncc(Cc2ccncc2)[nH]1)C(F)(F)F (single isomer, unassigned) [Example 7a]
3 | < 1 | N[C@H](c1nc(Cc2ccncc2)c[nH]1)C(F)(F)F (single isomer, unassigned) [Example 15a]
4 | 1 to 10 | CN[C@H](c1ncc(Cc2ccncc2)[nH]1)C(F)(F)F (single isomer, unassigned) [Example 16a]
5 | 1 to 10 | CN(C)[C@H](c1ncc(Cc2ccncc2)[nH]1)C(F)(F)F (single isomer, unassigned) [Example 17a]
6 | < 1 | O[C@H](c1nc(Cc2ccncc2)c[nH]1)c1cncs1 (single isomer, unassigned) [Example 20a]
7 | 10 to 100 | C[C@H](c1ccncc1)c1c[nH]c([C@@H](O)C(F)(F)F)n1 (single isomer, unassigned) [Example 24a]
8 | < 1 | C[C@H](c1ccncc1)c1c[nH]c([C@H](O)C(F)(F)F)n1 (single isomer, unassigned) [Example 24b]
9 | < 1 | O[C@](c1ncc(Cc2ccncc2)[nH]1)(c1cncs1)C(F)(F)F (single isomer, unassigned) [Example 26a]
10 | 1 to 10 | Cc1cnccc1Cc1cnc([C@@H](O)c2cncs2)[nH]1 (single isomer, unassigned) [Example 30a]
11 | 1 to 10 | O[C@@H](c1ncc(Cc2ccncc2)[nH]1)c1nccs1 (single isomer, unassigned) [Example 31a]
12 | 1 to 10 | C[C@](O)(c1ncc(Cc2ccncc2)[nH]1)C(F)(F)F (single isomer, unassigned) [Example 32a]
13 | 1 to 10 | COC(c1ncc(Cc2ccncc2)[nH]1)C(F)(F)F (single isomer, unassigned) [Example 33a]
14 | < 1 | Cc1cnccc1Cc1c[nH]c([C@@H](O)C(F)(F)F)n1 (single isomer, unassigned) [Example 37a]
15 | 1 to 10 | O[C@H](c1nc(Cc2ccncc2F)c[nH]1)C(F)(F)F (single isomer, unassigned) [Example 38a]
16 | 1 to 10 | N[C@@H](c1nc(Cc2ccncc2)cs1)C(F)(F)F [Example 19a]

Continued, molecule first:

Row | SMILES | IC50 [µM]
17 | ON=C(c1ncc(Cc2ccncc2)[nH]1)C(F)(F)F (mixture of isomers) [Example 13, (E/Z)-2,2,2-Trifluoro-1-(5-(pyridin-4-ylmethyl)-1H-imidazol-2-yl)ethan-1-one oxime] | 1 to 10
18 | CC(c1ccncc1)c1c[nH]c(CC(F)(F)F)n1 (racemic) [Example 5, (rac)-4-(1-(2-(2,2,2-Trifluoroethyl)-1H-imidazol-4-yl)ethyl)pyridine] | < 1
19 | CC(c1ccncc1)c1ccc(CC(F)(F)F)[nH]1 (racemic) [Example 11, (rac)-4-(1-(5-(2,2,2-Trifluoroethyl)-1H-pyrrol-2-yl)ethyl)pyridine] | 1 to 10
20 | Cc1cnccc1Cc1c[nH]c(C(O)c2cncs2)n1 (racemic) [Example 21, (rac)-(5-((3-Methylpyridin-4-yl)methyl)-1H-imidazol-2-yl)(thiazol-5-yl)methanol] | 10 to 100
21 | OC(c1nc(Cc2ccncc2Cl)c[nH]1)C(F)(F)F (racemic) [Example 23, (rac)-1-(4-((3-Chloropyridin-4-yl)methyl)-1H-imidazol-2-yl)-2,2,2-trifluoroethan-1-ol] | < 1
22 | OC(c1ccccn1)c1ncc(Cc2ccncc2)[nH]1 (racemic) [Example 35, (rac)-Pyridin-2-yl(5-(pyridin-4-ylmethyl)-1H-imidazol-2-yl)methanol] | 1 to 10
23 | CC(O)(c1nc(Cc2ccncc2)c[nH]1)C(F)(F)F (racemic) [Example 40, (rac)-1,1,1-Trifluoro-2-(4-(pyridin-4-ylmethyl)-1H-imidazol-2-yl)propan-2-ol] | 1 to 10
24 | C[C@@H](c1ccncc1)c1c[nH]c(CC(F)(F)F)n1 (single isomer, unassigned) [Example 5a] | < 1
25 | C[C@H](c1ccncc1)c1c[nH]c(CC(F)(F)F)n1 (single isomer, unassigned) [Example 5b] | 1 to 10
26 | O[C@@H](c1ncc(Cc2ccncc2)[nH]1)C(F)(F)F (single isomer, unassigned) [Example 7] | < 1
27 | NC(c1nc(Cc2ccncc2)c[nH]1)C(F)(F)F (single isomer, unassigned) [Example 15] | 1 to 10
28 | CNC(c1ncc(Cc2ccncc2)[nH]1)C(F)(F)F (single isomer, unassigned) [Example 16] | 1 to 10
29 | CN(C)C(c1ncc(Cc2ccncc2)[nH]1)C(F)(F)F (single isomer, unassigned) [Example 17] | 10 to 100
30 | NC(c1nc(Cc2ccncc2)cs1)C(F)(F)F (single isomer, unassigned) [Example 19] | 10 to 100
31 | OC(c1nc(Cc2ccncc2)c[nH]1)c1cncs1 (single isomer, unassigned) [Example 20] | 1 to 10
32 | C[C@@H](c1ccncc1)c1c[nH]c([C@H](O)C(F)(F)F)n1 (single isomer, unassigned) [Example 24] | < 1
33 | OC(c1ncc(Cc2ccncc2)[nH]1)(c1cncs1)C(F)(F)F (single isomer, unassigned) [Example 26] | 10 to 100

Row | SMILES | IC50 [µM]
34 | Cc1cnccc1Cc1cnc([C@H](O)c2cncs2)[nH]1 (single isomer, unassigned) [Example 30] | 10 to 100
35 | C[C@@](O)(c1ncc(Cc2ccncc2)[nH]1)C(F)(F)F (single isomer, unassigned) [Example 32] | < 1
36 | CO[C@@H](c1ncc(Cc2ccncc2)[nH]1)C(F)(F)F (single isomer, unassigned) [Example 33] | 1 to 10
37 | Cc1cnccc1Cc1c[nH]c(C(O)C(F)(F)F)n1 (single isomer, unassigned) [Example 37] | 1 to 10
38 | O[C@@H](c1nc(Cc2ccncc2F)c[nH]1)C(F)(F)F (single isomer, unassigned) [Example 38] | < 1
39 | FC(F)(F)Cc1nc(Cc2ccncc2)c[nH]1 [Example 1, 4-((2-(2,2,2-Trifluoroethyl)-1H-imidazol-4-yl)methyl)pyridine] | < 1
40 | FC(F)(F)CCc1nc(Cc2ccncc2)c[nH]1 [Example 2, 4-((2-(3,3,3-trifluoropropyl)-1H-imidazol-4-yl)methyl)pyridine] | 1 to 10
41 | N#CCc1nc(Cc2ccncc2)c[nH]1 [Example 3, 2-(4-(Pyridin-4-ylmethyl)-1H-imidazol-2-yl)acetonitrile] | < 1
42 | c1cc(Cc2c[nH]c(Cc3cncs3)n2)ccn1 [Example 6, 5-((4-(Pyridin-4-ylmethyl)-1H-imidazol-2-yl)methyl)thiazole] | < 1
43 | FC(F)(F)Cc1nc(Cc2ccncc2)n[nH]1 [Example 8, 4-((5-(2,2,2-Trifluoroethyl)-1H-1,2,4-triazol-3-yl)methyl)pyridine] | 10 to 100
44 | FC(F)(F)Cc1csc(Cc2ccncc2)n1 [Example 9, 2-(Pyridin-4-ylmethyl)-4-(2,2,2-trifluoroethyl)thiazole] | 1 to 10
45 | FC(F)(F)Cc1nc(Cc2ccncc2)cs1 [Example 10, 4-(Pyridin-4-ylmethyl)-2-(2,2,2-trifluoroethyl)thiazole] | 1 to 10
46 | O=C(c1ncc(Cc2ccncc2)[nH]1)C(F)(F)F [Example 12, 2,2,2-Trifluoro-1-(5-(pyridin-4-ylmethyl)-1H-imidazol-2-yl)ethan-1-one hydrochloride] | < 1
47 | Cc1[nH]c(CC(F)(F)F)nc1Cc1ccncc1 [Example 14, 4-((5-Methyl-2-(2,2,2-trifluoroethyl)-1H-imidazol-4-yl)methyl)pyridine] | 10 to 100
48 | FC(F)(F)Cc1ncc(Cc2c(Cl)cncc2Cl)[nH]1 [Example 22, 3,5-Dichloro-4-((2-(2,2,2-trifluoroethyl)-1H-imidazol-5-yl)methyl)pyridine] | 10 to 100
49 | Cc1cnccc1Cc1c[nH]c(CC(F)(F)F)n1 [Example 25, 3-Methyl-4-((2-(2,2,2-trifluoroethyl)-1H-imidazol-4-yl)methyl)pyridine] | < 1
50 | FC(F)(F)Cc1nc(Cc2ccncc2Cl)c[nH]1 [Example 27, 3-Chloro-4-((2-(2,2,2-trifluoroethyl)-1H-imidazol-4-yl)methyl)pyridine] | < 1

Same assay, conditions: 40 nM human SARM1(50-724), 0.3 mM NMN, 20 μM NAD, 60 minutes at room temperature; given as numeric bound; read-out: Average IC50

Row | IC50 [µM] | SMILES
51 | > 50 | C[C@@H](c1ccncc1)c1c[nH]c([C@@H](O)C(F)(F)F)n1 (single isomer, unassigned) [Example 24c]
52 | > 100 | O[C@@H](c1ncc(Cc2ccnc(F)c2)[nH]1)C(F)(F)F (single isomer, unassigned) [Example 34a]

More lines, now with the values behind:

Row | SMILES | IC50 [µM]
53 | ON=C(c1nc(Cc2ccncc2)cs1)C(F)(F)F (mixture of isomers) [Example 18, (E/Z)-2,2,2-Trifluoro-1-(4-(pyridin-4-ylmethyl)thiazol-2-yl)ethan-1-one oxime] | > 100
54 | O[C@H](c1ncc(Cc2ccncc2)[nH]1)c1nccs1 (single isomer, unassigned) [Example 31] | > 50
55 | O[C@H](c1ncc(Cc2ccnc(F)c2)[nH]1)C(F)(F)F (single isomer, unassigned) [Example 34] | > 100
56 | FC(F)(F)Cc1nc(Cc2ccnc(Cl)c2)c[nH]1 [Example 28, 2-Chloro-4-((2-(2,2,2-trifluoroethyl)-1H-imidazol-4-yl)methyl)pyridine] | > 50
57 | Fc1cc(Cc2c[nH]c(CC(F)(F)F)n2)ccn1 [Example 29, 2-Fluoro-4-((2-(2,2,2-trifluoroethyl)-3H-imidazol-4-yl)methyl)pyridine] | > 50
